In patent publication US20180228815A1, “NARINGENIN AND ASIATIC ACID COMBINATION TREATMENT OF CANCERS” (The Chinese University of Hong Kong, priority 2016, published 2018):

What was measured:
[1] = system: NK1.1+ NK cells; assay: Two-color immunofluorescence of IFN-γ+ and granzyme B+ NK cells in LLC tumor microenvironment; assay type: in vivo, mouse
Description: FIGS. 13A-13G. […] NK1.1+ cells (green), IFN-γ+ or granzyme B+ cells (red), DAPI (blue). Each error bar represents the mean±SEM for groups of three to four mice. * p<0.05, ** p<0.01, *** p<0.001 compared to Ctrl; ## p<0.01, ### p<0.001 as indicated. Scale bar, 100 μm. […] (FIGS. 13E, 13F) Effect of AA (10 μmol), NG ([…]), and their combination on levels of IFN-γ and granzyme B in supernatant of cultured splenic NK cells with TGF-β1 (5 ng/ml) detected by ELISA. (FIG. 13G) NK cell cytotoxicity assay with LLC as target cells at E:T ratio of 5:1, 10:1 and 20:1. Each error bar represents the mean±SEM for groups of three independent experiments. * p<0.05, ** p<0.01, *** p<0.001 compared to TGF-β1; # p<0.05, ## p<0.01, ### p<0.001 as indicated. Immunofluorescence staining was performed with 5 μm PLP fixed frozen sections of mouse tumor tissue to detect NK cell infiltration in tumor microenvironment and the protein levels of p-Smad3, Smad7, IFN-γ and granzyme B in these tumor infiltrated NK cells. Primary antibodies used for immunofluorescence staining include Alexa488 conjugated anti-mouse NK-1.1 (Biolegend, CA, USA), PE conjugated anti-mouse NKp46 (eBioscience Inc., CA, USA), anti-p-Smad2/3 (Santa Cruz Biotechnology, Santa Cruz, Calif.), anti-Smad7, anti-interferon gamma and anti-granzyme B (Abcam, MA, USA). All slides were mounted with DAPI containing mounting medium then analyzed with fluorescence microscope (Leica Microsystems, Wetzlar, Germany).

[2] = system: B16F10 melanoma; assay: B16F10 melanoma syngeneic mouse tumor model, tumor growth; assay type: in vivo; details: for tumor growth at higher dosages: dosages higher than 10 mg/kg AA or 50 mg/kg NG; for B16F10 melanoma volume and weight: monotherapy, different doses; for melanoma progression: single treatment, 10 mg/kg AA or 50 mg/kg NG
Text: B16F10 melanoma syngeneic tumor model was generated in C57/Bl6 male mice (aged week 8 and 25 g body weight) via subcutaneous injection of 1×10^6 B16F10 cells. Lewis Lung Cancer syngeneic tumor model was also generated in C57/Bl6 male mice via subcutaneous injection of 2×10^6 luciferase-labeled LLC cells. When average tumor size reached 50 mm^3, mice were randomly divided into four groups respectively receiving drug administration as described below. Tumor progression was monitored by calculating tumor volume with vernier calipers as well as by bioluminescence imaging with IVIS Spectrum system (Xenogen, PerkinElmer, Inc., MA, USA). All animal experiments were carried out by a protocol approved by Animal Ethics Experimental Committee at the Chinese University of Hong Kong. Two TCM-based drugs were used in this study, including asiatic acid (95% HLPC-purified, Nanning, China) and naringenin (98% HLPC-purified, Xian, China). Both drugs were dissolved in DMSO and Tween-80 at the ratio of 9:1, which was further diluted 10 times with saline as working solution. […] Studies were carried out by a protocol approved by Animal Ethics Experimental Committee at the Chinese University of Hong Kong.

[3] = system: Id2, IRF2; assay: Id2 and IRF2 expression in bone marrow-derived NK cells with TGF-β1 (real-time PCR, western blot); assay type: cell-based, mouse; details: bone marrow-derived NK cells in vitro
Description: After euthanasia, bone marrow cells were isolated from C57BL/6 mice following the protocol as previously described (10). Bone marrow cells were then seeded at the density of 1×10^6 cells/ml in MEMα medium (Gibco, Thermo Fisher Scientific Inc., MA, USA) containing 10% FBS supplemented with 1 ng/ml IL-7, 10 ng/ml Flt3L, 30 ng/ml SCF, 50 ng/ml IL-15 (Peprotech, NJ, USA) and […] β-Mercaptoethanol (Gibco, Thermo Fisher Scientific Inc., MA, USA) and cultured for 4 days. Then transferred cells to MEMα medium containing 10% FBS supplemented with 50 ng/ml IL-15, 20 ng/ml IL-2 and […] β-Mercaptoethanol to induce NK cells maturation for another 3 days. […] Tumor tissues and cultured NK cells were lysed with ice-cold RIPA buffer, and then protein was isolated as previously described (2 6). Membranes were blocked with 5% BSA in PBS for 1 hour at room temperature before incubated with primary antibodies against Smad7, Id2, β-actin (Santa Cruz Biotechnology, Santa Cruz, Calif., USA), p-Smad3 and IRF2 (Cell signaling, MA, USA) overnight at 4° C., subsequently incubated with IRDye 800-conjugated secondary antibodies (Rockland immunochemicals, PA, USA). Target protein expression was then detected by LiCor/Odyssey infrared image system (LI-COR Biosciences, NE, USA) and analyzed with Image J software (NIH, Bethesda, Md., USA).

Compound | IFN-γ-producing NK cells (IFN-γ+ NK1.1+ cells) [1] | granzyme B-secreting NK cells (GB+ NK1.1+ cells) [1] | tumor growth at higher dosages [2] | B16F10 melanoma volume and weight [2] | melanoma progression [2] | TGF-β1-induced suppression of IRF2 [3] | TGF-β1-induced suppression of Id2 [3]
C[C@H]1[C@H](C)CC[C@]2(C(=O)O)CC[C@]3(C)C(=CC[C@@H]4[C@@]5(C)C[C@@H](O)[C@H](O)[C@@](C)(CO)[C@@H]5CC[C@]43C)[C@H]12 [AA, Asiatic acid] | significantly increased | significantly increased | no further significant improvement | Dose-dependent inhibitory effect | effectively inhibited | significantly reduced | significantly reduced
O=C1CC(c2ccc(O)cc2)Oc2cc(O)cc(O)c21 (centres unmarked) [NG, 5,7-dihydroxy-2-(4-hydroxyphenyl)chroman-4-one] | significantly increased | significantly increased | no further significant improvement | Dose-dependent inhibitory effect | effectively inhibited | significantly reduced | significantly reduced
